According to patent US11415579B2, “Assay for measuring a rate of reaction between a target and a ligand candidate” (Imperial College Innovations Ltd., priority 2016, dated 2022):

How the values were obtained:
[1] = target: T1, human cyclin-dependent kinase 2 (Cdk2) (Homo sapiens, UniProt P24941); test: Kinetic thiol consumption assay with wild type Cdk2 (C177); type: binding; set-up: key to Rate enhancement, Cdk2 WT: k(Cdk2) divided by k(model thiol); Rate constant with Cdk2 (k(Cdk2)): unit not given here; settings: for Rate constant with Cdk2 (k(Cdk2)): 500 μM ligand, 5 μM thiol, phosphate buffer pH 8; for Rate enhancement, Cdk2 WT: no additional mutations; for Rate constant with Cdk2 WT: Protein: Cdk2, cysteine position WT, in h^-1; for k(Cdk2)/k(Cdk2_mut) rate enhancement: model thiol Cdk2[C177A, F80C, K278C]; for k(Cdk2)/k(GSH) rate enhancement: model thiol glutathione
T1 construct: poly-histidine; made in house; host or cells: E. coli
Method in brief: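 Rate enhancement: first-order decay constant with Cdk2 over that with a model thiol. Thiols (5 μM, degassed phosphate buffer pH 8, immobilized TCEP) were incubated with acrylamides at room temperature, and thiol consumption followed by fluorescence at 380/470 nm, normalized to DMSO control. Cdk2 was His-tagged, E. coli-expressed, with one surface cysteine (C177).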

[2] = Kinetic thiol consumption assay with model thiol glutathione; type: physicochemical; set-up: Rate constant with glutathione (k(GSH)): unit not given here; settings: for Rate constant with glutathione (k(GSH)): 500 μM ligand, 5 μM thiol, phosphate buffer pH 8; for Rate constant with Glutathione: Protein: Glutathione, cysteine position NA, in h-1
Method in brief: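 GSH 5 μM, degassed phosphate buffer pH 8, TCEP beads 2% v/v; acrylamide added; RT, 1 h; fluorescence ex/em 380/470 nm; normalized to DMSO/thiol control; k from first-order exponential decay fit.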

Cdk2(T182C) (C177A) = target: T2, Cdk2(T182C) (C177A) (Homo sapiens, UniProt P24941, C177A/T182C); test: Kinetic thiol consumption assay with Cdk2 mutant T182C; type: binding; set-up: key to Rate enhancement, Cdk2 T182C: rate constant with Cdk2 ÷ rate constant with model thiol (fold); settings: additional mutation C177A; for Rate constant with Cdk2 T182C: Protein: Cdk2, cysteine position T182C, in h^-1
T2 construct: poly-histidine; made in house; host or cells: E. coli
Method in brief: (§1)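 5 μM thiol, degassed phosphate pH 8, 2% v/v immobilized TCEP beads; 1 h RT; fluorescence ex 380/em 470 nm; normalized vs DMSO/thiol-only; first-order exponential decay fit → rate constant; Cdk2 k / model-thiol k = rate enhancement per acrylamide.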

Cdk2(C177A, F80C) = target: T3, Cdk2(C177A, F80C) (Homo sapiens, UniProt P24941, C177A/F80C); test: Kinetic thiol consumption assay with Cdk2 mutant F80C, incl. kobs versus concentration (Kd, k2); type: binding; set-up: key to Rate enhancement, Cdk2 F80C: Cdk2 rate constant divided by model-thiol rate constant; settings: additional mutation C177A; for Rate constant with Cdk2 F80C: Protein: Cdk2, cysteine position F80C, in h^-1
T3 construct: poly-histidine; made in house; host or cells: E. coli
Method in brief: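 His-tagged Cdk2(C177A/F80C) from E. coli or model thiol, 5 μM in degassed phosphate buffer pH 8 with TCEP beads, reacted with acrylamide ligands; fluorescence (ex/em 380/470 nm) normalized to DMSO control and fitted to first-order decay for kobs. Kd and k2 obtained from hyperbolic fit of kobs versus ligand concentration.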

Cdk2(R122C) (C177A) = target: T4, Cdk2(R122C) (C177A) (Homo sapiens, UniProt P24941, C177A/R122C); test: Kinetic thiol consumption assay with Cdk2 mutant R122C; type: binding; set-up: key to Rate enhancement, Cdk2 R122C: rate constant with Cdk2 ÷ rate constant with model thiol (fold); settings: additional mutation C177A; for Rate constant with Cdk2 R122C: Protein: Cdk2, cysteine position R122C, in h-1
T4 construct: poly-histidine; made in house; host or cells: E. coli
Method in brief: as §1

Cdk2(N272C) (C177A) = target: T5, Cdk2(N272C) (C177A) (Homo sapiens, UniProt P24941, C177A/N272C); test: Kinetic thiol consumption assay with Cdk2 mutant N272C; type: binding; set-up: key to Rate enhancement, Cdk2 N272: rate constant with Cdk2 ÷ rate constant with model thiol (fold); settings: for Rate enhancement, Cdk2 N272: Cdk2 N272, additional mutation C177A; for Rate constant with Cdk2 N272C: Protein: Cdk2, cysteine position N272C, additional mutation C177A, in h^-1
T5 construct: poly-histidine; made in house; host or cells: E. coli
Method in brief: as §1

Cdk2(S181C) (C177A) = target: T6, Cdk2(S181C) (C177A) (Homo sapiens, UniProt P24941, C177A/S181C); test: Kinetic thiol consumption assay with Cdk2 mutant S181C; type: binding; set-up: key to Rate enhancement, Cdk2 S181C: rate constant with Cdk2 ÷ rate constant with model thiol (fold); settings: additional mutation C177A; for Rate constant with Cdk2 S181C: Protein: Cdk2, cysteine position S181C, in h^-1
T6 construct: poly-histidine; made in house; host or cells: E. coli
Method in brief: as §1

Cdk2(H71C) (C177A) = target: T7, Cdk2(H71C) (C177A) (Homo sapiens, UniProt P24941, C177A/H71C); test: Kinetic thiol consumption assay with Cdk2 mutant H71C; type: binding; set-up: key to Rate enhancement, Cdk2 H71C: rate constant with Cdk2 ÷ rate constant with model thiol (fold); settings: additional mutation C177A; for Rate constant with Cdk2 H71C: Protein: Cdk2, cysteine position H71C, in h^-1
T7 construct: poly-histidine; made in house; host or cells: E. coli
Method in brief: as §1

Cdk2(S276C) (C177A) = target: T8, Cdk2(S276C) (C177A) (Homo sapiens, UniProt P24941, C177A/S276C); test: Kinetic thiol consumption assay with Cdk2 mutant S276C; type: binding; set-up: key to Rate enhancement, Cdk2 S276C: rate constant with Cdk2 ÷ rate constant with model thiol (fold); settings: additional mutation C177A; for Rate constant with Cdk2 S276C: Protein: Cdk2, cysteine position S276C, in h^-1
T8 construct: poly-histidine; made in house; host or cells: E. coli
Method in brief: as §1

Cdk2[C177A, F80C, K278C] = target: T9, Cdk2[C177A, F80C, K278C] (Homo sapiens, UniProt P24941, C177A/F80C/K278C); test: Kinetic thiol consumption assay with mutant Cdk2 as model thiol; type: binding; set-up: unit not given here; settings: 500 μM ligand, 5 μM thiol, phosphate buffer pH 8
T9 construct: poly-histidine; made in house; host or cells: E. coli
Method in brief: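 Model thiol: His-tagged human Cdk2 C177A/F80C/K278C (two engineered surface cysteines), E. coli-expressed, 5 μM in degassed phosphate buffer pH 8 with immobilized TCEP beads (2% v/v). Fluorescence (ex/em 380/470 nm) followed over time at room temperature, normalized to DMSO/thiol control. First-order decay fit gives rate constants.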

Row | Compound | Rate constant with Cdk2 (k(Cdk2)) [1] | Rate enhancement, Cdk2 WT [1] | Rate constant with Cdk2 WT [1] | k(Cdk2)/k(Cdk2_mut) rate enhancement [1] | k(Cdk2)/k(GSH) rate enhancement [1] | Rate constant with glutathione (k(GSH)) [2] | Rate constant with Glutathione [2] | Rate enhancement, Cdk2 T182C (Cdk2(T182C) (C177A)) | Rate constant with Cdk2 T182C (Cdk2(T182C) (C177A)) | Rate enhancement, Cdk2 F80C (Cdk2(C177A, F80C)) | Rate enhancement, Cdk2 R122C (Cdk2(R122C) (C177A)) | Rate enhancement, Cdk2 N272 (Cdk2(N272C) (C177A)) | Rate constant with Cdk2 N272C (Cdk2(N272C) (C177A)) | Rate enhancement, Cdk2 S181C (Cdk2(S181C) (C177A)) | Rate constant with Cdk2 S181C (Cdk2(S181C) (C177A)) | Rate enhancement, Cdk2 H71C (Cdk2(H71C) (C177A)) | Rate constant with Cdk2 H71C (Cdk2(H71C) (C177A)) | Rate enhancement, Cdk2 S276C (Cdk2(S276C) (C177A)) | Rate constant with Cdk2 S276C (Cdk2(S276C) (C177A)) | Rate constant with Cdk2[C177A, F80C, K278C] (k(Cdk2_mut)) (Cdk2[C177A, F80C, K278C]) | further results
1 | C=CC(=O)N1CCC2(CCCCCC2)C1 [CA-093] | 0.00196 | 0.2573 | 0.003412 | 0.3873 | 0.2651 | 0.0074 | 0.01326 | 4.072 | 0.05399 | 1.271 | 0.311 | 0.4207 | 0.005578 | 0.776 | 0.01029 | 0.5753 | 0.007628 | 1.327 | 0.0176 | 0.00507 | Rate constant with Cdk2 F80C (Cdk2(C177A, F80C)): 0.01686; Rate constant with Cdk2 R122C (Cdk2(R122C) (C177A)): 0.004124
2 | C=CC(=O)Nc1[nH]nc(C2CC2)c1-c1ccc2c(c1)OCO2 [CA-041] | 1.146 | 2.081 | 1.146 | 0.5929 | 2.106 | 0.5441 | 0.5506 | 0.8554 | 0.471 | 0 | 0.003956 | 0.008585 | 0.004727 | 0.005756 | 0.003169 | 0.007207 | 0.003968 | 0.0064 | 0.003524 | 1.933 | Rate constant with Cdk2 R122C (Cdk2(R122C) (C177A)): 0.002178
3 | C=CC(=O)N1CCn2c(Cc3ccccc3)nnc2C1 [CA-092] | 0.2634 | 3.152 | 0.2634 | 21.31 | 3.224 | 0.0817 | 0.08356 | 6.483 | 0.5417 | 0.1058 | 2.269 | 7.163 | 0.5985 | 0.9146 | 0.07642 | 2.689 | 0.2247 | 6.528 | 0.5455 | 0.01236 | hit classification, Example 2 ([1]; significant rate enhancement against both model thiols (GSH and mutant Cdk2)): hits; Rate constant with Cdk2 F80C (Cdk2(C177A, F80C)): 0.008842; Rate constant with Cdk2 R122C (Cdk2(R122C) (C177A)): 0.1896
4 | C=CC(=O)N(C)C1CC(OCC)C12CCC2 (centres unmarked) [CA-048] | 0.01116 | 0.7118 | 0.01346 | 1.41 | 0.8182 | 0.01364 | 0.01891 | 2.645 | 0.05001 | 0.8022 | 0.2023 | 0.5442 | 0.01029 | 0.6029 | 0.0114 | 0.2331 | 0.004408 | 0.779 | 0.01473 | 0.00791 | Rate constant with Cdk2 F80C (Cdk2(C177A, F80C)): 0.01517; Rate constant with Cdk2 R122C (Cdk2(R122C) (C177A)): 0.003826
5 | C=CC(=O)N1CCC2(CC1)NC(=O)N(C)C2=O [CA-046] | 0.00343 | 0.2104 | 0.003432 | 1.377 | 0.3593 | 0.00955 | 0.01631 | 0.595 | 0.009705 | 0.1163 | 0.2397 | 0.09295 | 0.001516 | 0.1987 | 0.00324 | 0.07112 | 0.00116 | 0.7069 | 0.01153 | 0.00249 | Rate constant with Cdk2 F80C (Cdk2(C177A, F80C)): 0.001897; Rate constant with Cdk2 R122C (Cdk2(R122C) (C177A)): 0.00391
6 | C=CC(=O)NCCN1CCOCC1 [BN-346] | 0.00428 | 1.185 | 0.005514 | 2.921 | 1.429 | 0.00299 | 0.004652 | 0.1853 | 0.000862 | 0.189 | 0 | 0.4286 | 0.001994 | 0.233 | 0.001084 | 0.09555 | 0.0004445 | 0.2004 | 0.0009323 | 0.00146 | Rate constant with Cdk2 F80C (Cdk2(C177A, F80C)): 0.0008792
